Reference: patent US8580814B2, “Methods of using (+)-1,4-dihydro-7-[(3S,4S)-3-methoxy-4-(methylamino)-1-pyrrolidinyl]-4- oxo-1-(2-thiazolyl)-1,8-naphthyridine-3-carboxylic acid for treatment of cancer” (priority 2006, dated 2013)
Values after ≈ are worked out from the molar mass of the structure shown. Marks after values point to notes of the source that are not given here.

Key:
[1] = test system: HCT-116 cells treated with 2 mM caffeine; assay: MTT assay, sensitization (caffeine); format: cell-based; settings: 2 mM caffeine pre-treated for 16 hours, compound 72 hours
Protocol: Cells were then incubated with 5% MTT for 1-2 hours and lysed. MTT was colorimetrically read at 570 nm and EC50's were determined using linear regression analysis.
Sensitization was carried out with various chemical treatments.

[2] = test system: DNAPKcs(−/−) (MO59J); assay: Timing of apoptosis (caspase-3 activation); format: cell-based; settings: Cell Line DNAPKcs(−/−); dosed at 30 fold above the EC50 for cytotoxicity
[3] = test system: HCT-116 cells treated with 2 mM caffeine; assay: Timing of apoptosis (caspase-3 activation); format: cell-based; settings: Cell Line Caffeine (HCT-116, 2 mM caffeine); dosed at 30 fold above the EC50 for cytotoxicity
[4] = test system: M059J (DNAPKcs(−/−)) cells; assay: Repair of DNA damage (gH2AX foci) in the absence of DNA-PK; format: cell-based; parameters: dose or concentration left out as unconfirmed; settings: M059J vs M059K (wt), washout, 16 hours recovery
Protocol: Compound was then removed and cells were allowed to recover for 16 hours. Cells were analyzed for gH2AX foci before and after drug washout.

[5] = test system: HCT116 colon carcinoma cell line; assay: Combination studies, MTT assay, Combination Index; format: cell-based
Protocol: (§1) Cell lines and Cell Culture: HCT116 and NCI-H460 cell lines were obtained from ATCC. SKOV3(p53−/−) and SKOV3(p53+/+) were obtained from the lab of Dr. George Stark of the Lerner Institute of the Cleveland Clinic. All cell lines were cultured in RPMI media supplemented with 10% FBS 1% Sodium Bicarbonate solution and 1% Antibiotic Solution (Cellgro).
(§2) MTT assay: Cells were plated at 4000 cells per well (except SKOV3 (p53−/−) which were plated at 8000 cells per well) in a 96 well plate, incubated for 24 hours and then treated with compound. Compound treatment lasted 72 hours. Cells were then incubated with 5% MTT for 1-2 hours, and lysed. MTT was colorimetrically read at 570 nm. The fraction of dead cells was determined by the following formula: Fraction of Dead cells=1−[Abs of sample well−Avg(Abs of no cell control)]/[Avg(Abs of DMSO only control)−Avg(abs of no cell control)]
Scheduling studies: When compounds were dosed with a schedule that included a washout, cells were washed with 100 μl of fresh warm media for 30 minutes, followed by another wash after 90 minutes.
(§3) Statistical Analysis: The data (Fraction of Dead cells) was analyzed using Calculsyn.V2 (Biosoft) and is herein represented as the value of the Combination Index at Fraction affected (Fa)=0.5. All data is shown with error bars indicating the 95% confidence intervals of the mean value.
A combination is said to be additive if it yields a Combination Index of 0.85-1.2. A combination is said to be synergistic if it yields a Combination Index less than 0.85 and a combination is said to be antagonistic if it yields a Combination Index of more than 1.2.

[6] = test system: H460 lung cancer cell line; assay: Combination studies, MTT assay, Combination Index; format: cell-based; settings: SNS-595 dosed simultaneously with various cytotoxics, H460, Fa=0.5
Protocol: as §1, §2, §3
(§4) A combination is said to be additive if it yields a Combination Index of 0.85-1.2. […]

[7] = test system: SKOV3 ovarian cancer cell line with or without p53 expression; assay: Combination studies, MTT assay, Combination Index; format: cell-based; settings: SNS-595 dosed simultaneously with a selection of DNA damaging agents and antimetabolites
Protocol: as §1, §2, §3, §4

[8] = test system: CCRF-CEM (lymphoblastic leukemia); assay: MTT cell viability assay, leukemia cells; format: cell-based; settings: Homo sapiens, MTT after 72 hours
Protocol: (§5) The following cell lines were used in this assay: HL-60 (promyelocytic leukemia); Jurkat (T cell leukemia); CCRF-CEM (lymphoblastic leukemia); CEM/C2 (camptothecan resistant derivative of CCRF-CEM). Cells were seeded in 96 wells plates at 3000 cells per well and incubated for 16 hours. […] Titrations were diluted 1:100 in media to achieve final compound concentrations. The 96 well plates were aspirated and compound dilutions in media were added ([…]). MTT analysis was carried out after 72 hours of incubation at 37° C. Briefly, […] of MTT solution was added to each well. Cells were incubated at 37° C. for 1-2 hours. […] Plates were read on a spectromax machine with an absorbance measurement at […]. IC50's were calculated (data provided in Table 13) using regression analysis within GraphPad Prism.

[9] = test system: CEM/C2 (camptothecan resistant derivative of CCRF-CEM); assay: MTT cell viability assay, leukemia cells; format: cell-based; settings: Homo sapiens; CEM/C2, MTT after 72 hours
Protocol: as §5

[10] = test system: HL-60 (promyelocytic leukemia); assay: MTT cell viability assay, leukemia cells; format: cell-based; settings: Homo sapiens; HL-60, MTT after 72 hours
Protocol: as §5

[11] = test system: Jurkat (T cell leukemia); assay: MTT cell viability assay, leukemia cells; format: cell-based; settings: Homo sapiens, MTT after 72 hours
Protocol: as §5

[12] = test system: LM3-Jck human malignant lymphoma tumor; assay: LM3-Jck xenograft model; format: in vivo, nude mice; settings: for IR (%) (tumor inhibition rate): LM3-JcK, q7d X3, IV; for Survival Ratio: nude, mouse, in vivo, iv, 21 days
Protocol: LM3-Jck human malignant lymphoma tumor lobes (2-3 mm square) were transplanted subcutaneously into nude mice. Tumors were allowed to grow to approximately 7-14 mm in diameter. […] Acceptable toxicity was defined as a mean group weight loss of 30% or less and not more than one toxic death among 6 treated animals. Anti-tumor activities of the drugs were assessed 21 days after the start of administration.

[13] = Solubility in acidic compositions; format: physicochemical; settings: Acidic compositions (<pH 4)
Protocol: An illustrative example of a suitable composition comprises: 10 mg SNS-595 per mL of aqueous solution of 4.5% sorbitol that is adjusted to pH 2.5 with methanesulfonic acid. One protocol for making such a solution includes the following for making a 100 mg/10 mL presentation: 100 mg of SNS-595 and 450 mg D-sorbitol are added to distilled water; the volume is brought up to a volume of 10 mL; and the pH of the resulting solution is adjusted to 2.5 with methanesulfonic acid. The resulting composition is also suitable for lyophilization. The lyophilized form is then reconstituted with sterile water to the appropriate concentration prior to use.

[14] = co-dosed, or dosed with 24 hours delay, HCT116

## CN[C@H]1CN(c2ccc3c(=O)c(C(=O)O)cn(-c4nccs4)c3n2)C[C@@H]1OC [SNS-595, (+)-1,4-dihydro-7-[(3S,4S)-3-methoxy-4-(methylamino)-1-pyrrolidinyl]-4-oxo-1-(2-thiazolyl)-1,8-naphthyridine-3-carboxylic acid]
[1]
  Sensitization, fold decrease in the EC50 for cytotoxicity (MTT): Caffeine: 0.5 fold
[2]
  Timing of apoptosis: fraction of cell cycle to achieve 50% maximal caspase-3 activation: 0.25
[3]
  Timing of apoptosis: fraction of cell cycle to achieve 50% maximal caspase-3 activation: 0.25
[4]
  repair of induced DNA damage (gH2AX foci) in the absence of DNA-PK: not effectively repaired
[5]; SNS-595 dosed simultaneously with various cytotoxics, HCT116, Fa=0.5
  combination indices: significantly synergistic or at least additive
[5]; [14]
  combination effect with docetaxel: might have been antagonistic
  combination effect with gemcitabin: might have been antagonistic
[5]; treated with the first agent, washed and then treated with the second agent (2 hr wash and 24 hr wash), HCT116
  combination effect with docetaxel or gemcitabin: Additivity or possibly synergy
[6]
  combination indices: significantly synergistic or at least additive
[7]
  change in the combination index between SKOV3 with or without p53 expression: no significant change
[8]
  IC50: 0.018 µg/mL (≈ 0.0448 µM)
[9]
  IC50: 0.01 µg/mL (≈ 0.0249 µM)
[10]
  IC50: 0.053 µg/mL (≈ 0.132 µM)
[11]
  IC50: 0.023 µg/mL (≈ 0.0573 µM)
[12]; 20 and 25 mg/kg
  antitumor activity against LM-3 Jck malignant lymphoma: strong antitumor activity with complete tumor regressions
[12]; 20 mg/kg
  IR (%) (tumor inhibition rate): 98.9* %
  Survival Ratio: 6/6
[12]; 25 mg/kg
  IR (%) (tumor inhibition rate): 98.5* %
  Survival Ratio: 6/6
[13]
  solubility: increased solubility
